# Where two headings read alike, the source gives them in different places.
# Assays:
# [1] = Hygroscopicity of bepotastine salts (Table 1); type: physicochemical
# From the text: Further, when the crystalline bepotastine metal salt hydrate of formula (I) of the present invention is stored under an extremely high-moisture condition, its moisture content don't increases substantially, thus, it is non-hygroscopic. In contrast, an alkaline metal salt of bepotastine, e.g., lithium salt, sodium salt, potassium salt, magnesium salt or barium salt of bepotastine; a transition metal salt of bepotastine, e.g., zinc salt, aluminum salt, bismuth salt, or iron salt of bepotastine; an organic amine salt of bepotastine, e.g., ammonium salt, ethyl amine salt, dimethyl amine salt, triethylamine salt or N-methyl glucamine salt of bepotastine; and an amino acidic salt of the bepotastine, e.g., arginine salt, lysine salt, or histidine salt of bepotastine, are mostly obtained as non-crystalline forms, and, even when they are obtained as crystalline forms, they are hygroscopic.
# [2] = Solubility test (saturation solubility); conditions: for Saturation solubility (mg/ml) pH 1.2 buffer solution: pH 1.2 buffer solution (simulates gastric juice); for Saturation solubility (mg/ml) pH 6.8 buffer solution: pH 6.8 buffer solution (simulates intestinal juice)
# [3] = Effect of severe storage condition on the optical purity (chiral HPLC); type: physicochemical; conditions: for Change of optical purity during the storage / Optical purity (%) After standing at 60° C. and 75% R.H. for 4 weeks in closed condition / Optical purity (%) After standing at 60° C. and 75% R.H. for 4 weeks in open condition: 60° C., 75% R.H., 4 weeks
# Protocol: For the measurement of the optical purity of the bepotastine, chiral HPLC was conducted under following conditions and the optical purity was calculated using the Equation 1.
# • Detector: Ultraviolet ray spectrophotometer (detection wavelength: 225 nm) • Column: YMC Chiral β-CDs (4.6×250 mm, 5 μm) • Mobile phase: methanol/ammonium acetate buffer solution=45/55(v/v, %) • Flow rate: 0.8 ml/min
# Optical Purity (%)=Ps/(Ps+Pr)×100 Equation 1
# wherein • Ps is the peak area of bepotastine, and • Pr is the peak area of R-enantiomer of bepotastine.
# The optical purities of respective bepotastine salts were determined.
# [4] = Moisture absorption test; type: physicochemical
# [5] = 40° C. and 75% relative humidity
# From the text: Accordingly, there have been attempts to convert bepotastine to an acid salt form having a high optical purity which is resistant to racemization.
compound,measurement,setting,value
O=C(O)CCCN1CCC(O[C@@H](c2ccc(Cl)cc2)c2ccccn2)CC1 [Sodium],Hygroscopicity,[1],Hygroscopic
same,Hygroscopicity,[1]; listed as sodium salt of bepotastine,highly hygroscopic
"O.O.O=C([O-])CCCN1CCC(O[C@@H](c2ccc(Cl)cc2)c2ccccn2)CC1.O=C([O-])CCCN1CCC(O[C@@H](c2ccc(Cl)cc2)c2ccccn2)CC1.[Ca+2] [Calcium salt hydrate, Bepotastine Calcium Salt Dihydrate]",Solubility compared with bepotastine benzenesulfonic acid salt,[2]; pH 1.2,similar
same,Saturation solubility (mg/ml) pH 1.2 buffer solution,[2],43.2 mg/ml
same,Solubility relative to bepotastine benzenesulfonic acid salt,[2]; pH 6.8,at least 2 times
same,Saturation solubility (mg/ml) pH 6.8 buffer solution,[2],61.6 mg/ml
same,Change of optical purity during the storage,[3],remained unchanged
same,Optical purity (%) After standing at 60° C. and 75% R.H. for 4 weeks in closed condition,[3],99.9%
same,Optical purity (%) After standing at 60° C. and 75% R.H. for 4 weeks in open condition,[3],99.9%
same,Optical purity (%) Before the test,[3],99.9%
same,Hygroscopicity (conclusion of moisture absorption test),[4],essentially non-hygroscopic
same,Water contents (%) Day 1,"[4]; 25° C., 75% R.H.",4.3%
same,Water contents (%) Day 3,"[4]; 25° C., 75% R.H.",4.3%
same,Water contents (%) Day 7,"[4]; 25° C., 75% R.H.",4.4%
same,Water contents (%) Day 15,"[4]; 25° C., 75% R.H.",4.4%
same,Water contents (%) initial,"[4]; 25° C., 75% R.H.",4.3%
same,Water contents (%) Day 1,"[4]; 40° C., 75% R.H.",4.4%
same,Water contents (%) Day 3,"[4]; 40° C., 75% R.H.",4.6%
same,Water contents (%) Day 7,"[4]; 40° C., 75% R.H.",4.5%
same,Water contents (%) Day 15,"[4]; 40° C., 75% R.H.",4.6%
same,Water contents (%) initial,"[4]; 40° C., 75% R.H.",4.3%
same,Increment of water content,"[4]; 40° C., 90% R.H., 15 days",less than 0.7%
same,Water contents (%) Day 1,"[4]; 40° C., 90% R.H.",4.7%
same,Water contents (%) Day 3,"[4]; 40° C., 90% R.H.",4.9%
same,Water contents (%) Day 7,"[4]; 40° C., 90% R.H.",4.9%
same,Water contents (%) Day 15,"[4]; 40° C., 90% R.H.",5.0%
same,Water contents (%) initial,"[4]; 40° C., 90% R.H.",4.3%
O=C(O)CCCN1CCC(OC(c2ccc(Cl)cc2)c2ccccn2)CC1.O=C(O)c1ccccc1 (stereo not shown) [bepotastine benzoic acid salt],Racemization under high moisture condition,[5],slow racemization
L-Arginine,Hygroscopicity,[1],Hygroscopic
O=C(O)CCCN1CCC(O[C@@H](c2ccc(Cl)cc2)c2ccccn2)CC1 [Potassium],Hygroscopicity,[1]; listed as potassium salt of bepotastine,highly hygroscopic
[Mg] [Magnesium],Hygroscopicity,[1],Hygroscopic
Zinc,Hygroscopicity,[1],Hygroscopic
NCCCC[C@H](N)C(=O)O [L-Lysine],Hygroscopicity,[1],Hygroscopic
"O=C(O)CCCN1CCC(O[C@@H](c2ccc(Cl)cc2)c2ccccn2)CC1.O=S(=O)(O)c1ccccc1 [Benzenesulfonic acid salt, Bepotastine Benzenesulfonic Acid Salt]",Racemization under high moisture condition,[5],slow racemization
same,Saturation solubility (mg/ml) pH 1.2 buffer solution,[2],45.0 mg/ml
same,Saturation solubility (mg/ml) pH 6.8 buffer solution,[2],28.1 mg/ml
same,Change of optical purity during the storage,[3],decreases significantly
same,Optical purity (%) After standing at 60° C. and 75% R.H. for 4 weeks in closed condition,[3],97.3%
same,Optical purity (%) After standing at 60° C. and 75% R.H. for 4 weeks in open condition,[3],95.5%
same,Optical purity (%) Before the test,[3],99.9%
same,Water contents (%) Day 1,"[4]; 25° C., 75% R.H.",0.6%
same,Water contents (%) Day 3,"[4]; 25° C., 75% R.H.",0.6%
same,Water contents (%) Day 7,"[4]; 25° C., 75% R.H.",0.7%
same,Water contents (%) Day 15,"[4]; 25° C., 75% R.H.",0.6%
same,Water contents (%) initial,"[4]; 25° C., 75% R.H.",0.4%
same,Water contents (%) Day 1,"[4]; 40° C., 75% R.H.",0.7%
same,Water contents (%) Day 3,"[4]; 40° C., 75% R.H.",0.8%
same,Water contents (%) Day 7,"[4]; 40° C., 75% R.H.",0.8%
same,Water contents (%) Day 15,"[4]; 40° C., 75% R.H.",0.9%
same,Water contents (%) initial,"[4]; 40° C., 75% R.H.",0.4%
same,Water contents (%) Day 1,"[4]; 40° C., 90% R.H.",2.4%
same,Water contents (%) Day 3,"[4]; 40° C., 90% R.H.",2.5%
same,Water contents (%) Day 7,"[4]; 40° C., 90% R.H.",2.4%
same,Water contents (%) Day 15,"[4]; 40° C., 90% R.H.",2.5%
same,Water contents (%) initial,"[4]; 40° C., 90% R.H.",0.4%

# Reference: US20100137367A1, “NOVEL CRYSTALLINE BEPOTASTINE METAL SALT HYDRATE, METHOD FOR PREPARING SAME, AND PHARMACEUTICAL COMPOSITION COMPRISING SAME” (Hanmi Pharm. Co., Ltd., priority 2007, published 2010)
